34 compounds from patent publication US20040044008A1, “Use of therapeutic benzamide derivatives” (priority 2000, published 2004) can be followed below.

Consider `COc1ccc(-c2ccccc2C(=O)Nc2ccc(N3CCN(Cc4cccc(C#N)c4)CC3)cc2)cc1`, for which the melting point lay in the range of 124 to 128 °C.

Compound `Cc1ccc(-c2ccccc2C(=O)Nc2ccc(N3CCN(Cc4cccc(C#N)c4)CC3)cc2)cc1C` registered a melting point of 140 to 144 °C.

`Cc1ccc(-c2ccccc2C(=O)Nc2ccc(N3CCN(Cc4cccc(C#N)c4)CC3)cc2)c(C)c1` returned a melting point of 72 to 76 °C.

In the case of `O=C(Nc1ccc(N2CCN(Cc3ccncc3)CC2)cc1)c1ccccc1-c1ccc(C(F)(F)F)cc1`, the melting point is 194 to 196 °C.

In turn, `N#Cc1cccc(CN2CCN(c3ccc(NC(=O)c4ccccc4-c4ccccc4)cc3)CC2)c1` (hydrate or solvate) [Example 11, Biphenyl-2-carboxylic acid [4-[4-(3-cyano-benzyl)-piperazin-1-yl]-phenyl]-amide] showed a melting point of 169 to 171 °C.

Turning to `N#Cc1cccc(CN2CCN(c3ccc(NC(=O)c4ccccc4Oc4ccccc4)cc3)CC2)c1` (hydrate or solvate) [Example 14, N-[4-[4-(3-Cyano-benzyl)-piperazin-1-yl]-phenyl]-2-phenoxy-benzamide], the melting point was 133 to 134 °C.

As for `COc1cccc(CN2CCN(c3ccc(NC(=O)c4ccccc4-c4ccc(C(F)(F)F)cc4)cc3)CC2)c1` (hydrate or solvate) [Example 51, 4′-Trifluoromethyl-biphenyl-2-carboxylic acid [4-[4-(3-methoxy-benzyl)-piperazin-1-yl]-phenyl]-amide], the melting point was 168 to 170 °C.

`O=C(Nc1ccc(N2CCN(Cc3cccc(F)c3)CC2)cc1)c1ccccc1-c1ccc(C(F)(F)F)cc1` (hydrate or solvate) [Example 53, 4′-Trifluoromethyl-biphenyl-2-carboxylic acid [4-[4-(3-fluoro-benzyl)-piperazin-1-yl]-phenyl]-amide] yielded a melting point of 189 to 190.5 °C.

The compound `O=C(Nc1ccc(N2CCN(Cc3ccccn3)CC2)cc1)c1ccccc1-c1ccc(C(F)(F)F)cc1` (hydrate or solvate) [Example 57, 4′-Trifluoromethyl-biphenyl-2-carboxylic acid [4-(4-pyridin-2-ylmethyl-piperazin-1-yl)-phenyl]-amide] had a melting point of 168 to 170 °C.

`O=C(Nc1ccc(N2CCN(Cc3nccs3)CC2)cc1)c1ccccc1-c1ccc(C(F)(F)F)cc1` (hydrate or solvate) [Example 59, 4′-Trifluoromethyl-biphenyl-2-carboxylic acid [4-(4-thiazol-2-ylmethyl-piperazin-1-yl)-phenyl]-amide] had a melting point of 187 to 189 °C.

Turning to `CC(C)c1ccc(-c2cc(Cl)ccc2C(=O)Nc2ccc(N3CCN(Cc4cccc(C#N)c4)CC3)cc2)cc1` [Example 7, 5-Chloro-4′-isopropyl-biphenyl-2-carboxylic acid [4-[4-(3-cyano-benzyl)-piperazin-1-yl]-phenyl]-amide], the melting point lay within 188 to 190 °C.

In the case of `COc1cccc(C(=O)Nc2ccc(N3CCN(Cc4cccc(C#N)c4)CC3)cc2)c1-c1ccc(C(F)(F)F)cc1` [Example 8, 6-Methoxy-4′-trifluoromethyl-biphenyl-2-carboxylic acid [4-[4-(3-cyano-benzyl)-piperazin-1-yl]-phenyl]-amide], the melting point lay within 215 to 217 °C.

In turn, `Cc1ccc(C(=O)Nc2ccc(N3CCN(Cc4cccc(C#N)c4)CC3)cc2)c(-c2ccc(C(F)(F)F)cc2)c1` [Example 9, 5-Methyl-4′-trifluoromethyl-biphenyl-2-carboxylic acid [4-[4-(3-cyano-benzyl)-piperazin-1-yl]-phenyl]-amide] returned a melting point of 166 to 168 °C.

`N#Cc1cccc(CN2CCN(c3ccc(NC(=O)c4ccc(Cl)cc4-c4ccc(C(F)(F)F)cc4)cc3)CC2)c1` [Example 10, 5-Chloro-4′-trifluoromethyl-biphenyl-2-carboxylic acid [4-[4-(3-cyano-benzyl)-piperazin-1-yl]-phenyl]-amide]: the melting point fell in the range of 164 to 165 °C.

Turning to `COc1ccc(C(=O)Nc2ccc(N3CCN(Cc4cccc(C#N)c4)CC3)cc2)c(-c2ccccc2)c1` [Example 12, 5-Methoxy-biphenyl-2-carboxylic acid [4-[4-(3-cyano-benzyl)-piperazin-1-yl]-phenyl]-amide], the melting point lay within 159 to 161 °C.

Consider `CC(C)c1ccc(-c2ccccc2C(=O)Nc2ccc(N3CCN(Cc4cccc(C#N)c4)CC3)cc2)cc1` [Example 16, 4′-Isopropyl-biphenyl-2-carboxylic acid [4-[4-(3-cyano-benzyl)-piperazin-1-yl]-phenyl]-amide], for which the melting point lay within 133 to 135 °C.

For the compound `COc1ccc(C(=O)Nc2ccc(N3CCN(Cc4cccc(C#N)c4)CC3)cc2)c(-c2ccc(C(F)(F)F)cc2)c1` [Example 17, 5-Methoxy-4′-trifluoromethyl-biphenyl-2-carboxylic acid [4-[4-(3-cyano-benzyl)-piperazin-1-yl]-phenyl]-amide], the melting point was 160 to 164 °C.

Consider `Cc1ccc(-c2ccc(C(F)(F)F)cc2)c(C(=O)Nc2ccc(N3CCN(Cc4cccc(C#N)c4)CC3)cc2)c1` [Example 18, 4-Methyl4′-trifluoromethyl-biphenyl-2-carboxylic acid [4-[4-(3-cyano-benzyl)-piperazin-1-yl]-phenyl]-amide], for which the melting point lay within 120 to 124 °C.

With `COc1ccc(-c2ccc(C(F)(F)F)cc2)c(C(=O)Nc2ccc(N3CCN(Cc4cccc(C#N)c4)CC3)cc2)c1` [Example 19, 4-Methoxy-4′-trifluoromethyl-biphenyl-2-carboxylic acid [4-[4-(3-cyano-benzyl)-piperazin-1-yl]-phenyl]-amide], the melting point is 151 to 155 °C.

Turning to `CCc1ccc(-c2ccccc2C(=O)Nc2ccc(N3CCN(Cc4cccc(C#N)c4)CC3)cc2)cc1` [Example 20, 4′-Ethyl-biphenyl-2-carboxylic acid [4-[4-(3-cyano-benzyl)-piperazin-1-yl]-phenyl]-amide], the melting point was in the range of 118 to 122 °C.

In turn, `N#Cc1cccc(CN2CCN(c3ccc(NC(=O)c4ccccc4-c4cccc(C(F)(F)F)c4)cc3)CC2)c1` [Example 22, 3′-Trifluoromethyl-biphenyl-2-carboxylic acid [4-[4-(3-cyano-benzyl)-piperazin-1-yl]-phenyl]-amide] displayed a melting point of 117 to 121 °C.

In the case of `N#Cc1cccc(CN2CCN(c3ccc(NC(=O)c4ccccc4-c4ccc(F)cc4)cc3)CC2)c1` [Example 23, 4′-Fluoro-biphenyl-2-carboxylic acid [4-[4-(3-cyano-benzyl)-piperazin-1-yl]-phenyl]-amide], the melting point was 200 to 202 °C.

`COc1ccc(-c2ccccc2C(=O)Nc2ccc(N3CCN(Cc4cccc(C#N)c4)CC3)cc2)cc1OC` [Example 26, 3′,4′-Dimethoxy-biphenyl-2-carboxylic acid [4-[4-(3-cyano-benzyl)-piperazin-1-yl]-phenyl]-amide]: the melting point was in the range of 116 to 120 °C.

In turn, `COc1cccc(C(=O)Nc2ccc(N3CCN(Cc4cccc(C#N)c4)CC3)cc2)c1OCc1ccc(F)cc1` [Example 29, N-[4-[4-(3-Cyano-benzyl)-piperazin-1-yl]-phenyl]-2-(4-fluoro-benzyloxy)-3-methoxy-benzamide] registered a melting point of 118 to 120 °C.

As to `COc1cccc(C(=O)Nc2ccc(N3CCN(Cc4cccc(C#N)c4)CC3)cc2)c1OCCc1ccccc1` [Example 30, N-[4-[4-(3-Cyano-benzyl)-piperazin-1-yl]-phenyl]-3-methoxy-2-phenethyloxy-benzamide], the melting point lay within 140 to 142 °C.

The compound `COc1cccc(C(=O)Nc2ccc(N3CCN(Cc4cccc(C#N)c4)CC3)cc2)c1OCCC1CCCCC1` [Example 31, N-[4-[4-(3-Cyano-benzyl)-piperazin-1-yl]-phenyl]-2-(2-cyclohexyl-ethoxy)-3-methoxy-benzamide] registered a melting point of 102 to 104 °C.

`N#Cc1cccc(CN2CCN(c3ccc(NC(=O)c4ccccc4OCCC4CCCCC4)cc3)CC2)c1` [Example 32, N-[4-[4-(3-Cyano-benzyl)-piperazin-1-yl]-phenyl]-2-(2-cyclohexyl-ethoxy)-benzamide] yielded a melting point of 119 to 121 °C.

Compound `COc1cccc(C(=O)Nc2ccc(N3CCN(Cc4cccc(C#N)c4)CC3)cc2)c1OCCCc1ccccc1` [Example 33, N-[4-[4-(3-Cyano-benzyl)-piperazin-1-yl]-phenyl]-3-methoxy-2-(3-phenyl-propoxy)-benzamide] came in with a melting point of 134 to 136 °C.

`Cc1cccc(C(=O)Nc2ccc(N3CCN(CC(N)=O)CC3)cc2)c1-c1ccc(C(F)(F)F)cc1` [Example 40, 6-Methyl4′-trifluoromethyl-biphenyl-2-carboxylic acid [4-(4-carbamoylmethyl-piperazin-1-yl)-phenyl]-amide] showed a melting point of 196 to 198 °C.

Regarding `N#CCN1CCN(c2ccc(NC(=O)c3ccccc3-c3ccc(C(F)(F)F)cc3)cc2)CC1` [Example 41, 4′-Trifluoromethyl-biphenyl-2-carboxylic acid [4-(4-cyanomethyl-piperazin-1-yl]-phenyl]-amide], the melting point is 244 to 246 °C.

In turn, `CCOC(=O)CN1CCN(c2ccc(NC(=O)c3ccccc3-c3ccc(C(F)(F)F)cc3)cc2)CC1` [Example 42, 4′-Trifluoromethyl-biphenyl-2-carboxylic acid [4-(4-ethoxycarbonylmethyl-piperazin-1-yl)-phenyl]-amide] showed a melting point of 167 to 169 °C.

In the case of `CCOCCN1CCN(c2ccc(NC(=O)c3ccccc3-c3ccc(C(F)(F)F)cc3)cc2)CC1` [Example 43, 4′-Trifluoromethyl-biphenyl-2-carboxylic acid [4-(4-(2-ethoxy-ethyl)-piperazin-1-yl]-phenyl]-amide], the melting point was 176 to 178 °C.

In the case of `O=C(Nc1ccc(N2CCN(CCCO)CC2)cc1)c1ccccc1-c1ccc(C(F)(F)F)cc1` [Example 44, 4′-Trifluoromethyl-biphenyl-2-carboxylic acid [4-(4-(3-hydroxy-propyl)-piperazin-1-yl]-phenyl]-amide], the melting point fell in the range of 208 to 210 °C.

`O=C(Nc1ccc(N2CCN(CCCC(F)(F)F)CC2)cc1)c1ccccc1-c1ccc(C(F)(F)F)cc1` [Example 45, 4′-Trifluoromethyl-biphenyl-2-carboxylic acid [4-(4-(4,4,4-trifluoro-butyl)-piperazin-1-yl]-phenyl]-amide] displayed a melting point of 198 to 200 °C.
